Patent publication US4162311A, “Medicinal preparation with pronounced vegetotropic and antiepileptic effect for treating psychoneurotic disorders” (priority 1977, dated 1979)
“Also recorded” adds a separate entry of the source.

Experiments:
[1] = acute toxicity / tolerance dose; settings: in vivo
[2] = tested on: separated intestines; blood pressure and respiration of rabbits; experiment: peripheral adrenolytic effect: separated intestines, blood pressure and respiration of rabbits
[3] = local irritant effect; settings: in vivo
[4] = cumulative effect; settings: in vivo
[5] = tested on: lethal dose of cocaine; experiment: lethal dose of cocaine in mice
[6] = tested on: convulsions caused by corasole, strychnine, and electroconvulsion therapy; experiment: convulsions caused by corasole, strychnine and electroconvulsion therapy; type: in vivo, animals
Text: (§2) As regards the effects of the proposed preparation on convulsions induced in animals in the course of an experiment, the mechanism of action appears to be more complicated.

[7] = tested on: effects of nibuphin; experiment: synergism with nibuphin; settings: in vivo
[8] = tested on: hexenal, barbamil, urethane and chloral hydrate effect; experiment: interaction with narcotics and soporifics (hexenal, barbamil, urethane, chloral hydrate); type: in vivo
Text: (§1) A dose as low as 1/5 DMT potentiates barbamil.

[9] = tested on: monoaminooxidaze; experiment: monoaminooxidaze suppression, inferred from hexenal sleep; type: in vivo; settings: concluded from equal hexenal sleep at 2 and 22 hours
Text: as §1

[10] = analgetic effect in mice
[11] = tested on: sympathoadrenal and hypothalamohypophysioadrenal systems; experiment: clinical studies of vegetovascular dystonia; type: in vivo, patients; settings: 32 cases
[12] = clinical investigation in neurotic and psychic disorders
[13] = clinical safety on prolonged use; type: in vivo, patients
Text: The proposed preparation can be used for treating both young and old patients, as well as those having concomitant diseases of internal organs.

[14] = tested on: epileptic seizures caused by microinjections of penicillin; experiment: epileptic seizures caused by microinjections of penicillin into the hippocamp; type: in vivo; settings: rabbits, 20 to 100 mg/kg
Text: as §2

[15] = tested on: serotonin content in brain tissue; experiment: serotonin content in brain tissue of mice; type: in vivo
[16] = prolonged treatment, anatomical and histological examination, rabbits; type: in vivo; settings: intramuscular, 50 mg/kg
[17] = clinical: neurasthenia with vegetovascular dystonia; type: in vivo, patients
[18] = clinical: hypothalamic syndrome with sympathoadrenal crises; type: in vivo, patients; settings: of 20 cases
Text: In 12 cases the number and intensity of fits were reduced and general improvement was observed. Earlier, all the patients had been repeatedly admitted to neurological hospitals where they were subjected to different forms of treatment, including drug therapy with the use of tranquilizers of the benzodiazepin derivatives. The effect of such treatment was quite moderate and unstable and was only manifest in a reduced number of fits and a slight improvement of the general state of the patients.

[19] = prolonged treatment, anatomical and histological examination, mice; type: in vivo; settings: intraperitoneal, 35 mg/kg (1/9 LD50)
[20] = tested on: phenamine stereotypy; experiment: phenamine stereotypy in rats
[21] = clinical: acute alcoholic abstinence; type: in vivo, patients; settings: of 30 alcoholics; first two days; placebo 10 of 30
Text: On the whole, the proposed preparation reduced the period of abstinence 2- to 3-fold.

[22] = body temperature of mice; type: in vivo; settings: for decrease of body temperature (hypothermal effect): 200 mg/kg (DMT)
[23] = clinical: temporal lobe epilepsy; type: in vivo, patients
Text: Good results were also obtained in treating 18 cases of temporal lobe epilepsy with predominant psychosensory, psychomotor, vegetative and emotional fits. For a number of years, all the patients had been given anticonvulsants and tranquilizers which were derivatives of benzodiazepin. In most of these cases conventional treatment had been ineffective. The proposed preparation brought about a dramatic change: in 14 cases the attacks either ceased completely or their frequency was reduced by more than half.

[24] = tested on: nicotine-induced convulsions; experiment: nicotine-induced convulsions in mice; type: in vivo
[25] = sedative effect / depression in animals; type: in vivo, mice and rats
[26] = solubility; type: physicochemical
Text: Hydrazide of diphenylphosphinylacetic acid is a bitter-tasting odorless white crystalline powder. It is soluble in water (1:100), alcohol and chloroform, but insoluble in benzene and ether.

[27] = tested on: convulsant effects of corasole and caffeine; experiment: sensitivity of mice to the convulsant effects of corasole and caffeine; type: in vivo
[28] = tested on: apomorphine toxicity and stereotypy; experiment: apomorphine toxicity and stereotypy; type: in vivo, mice
[29] = tested on: arecoline tremor; experiment: M-cholinolytic effect: arecoline tremor in mice; type: in vivo
[30] = tested on: action of serotonin on a separated rat's intestine; experiment: separated intestine with serotonin
[31] = behavior of rabbits after intramuscular administration; type: in vivo; settings: 50 mg/kg
[32] = tested on: orientating reaction in mice; experiment: orientating reaction in mice; type: in vivo; settings: intra-abdominal, 1/8 DMT, one hour before
[33] = tested on: cholinesterase; experiment: anticholinesterase properties
[34] = chemical stability / shelf life; type: physicochemical
Text: Hydrazide of diphenylphosphenylacetic acid is a bitter-tasting odorless white powder.

[35] = tested on: hypothermal effect of aminazine (chlorpromazine); experiment: hypothermal effect of aminazine (chlorpromazine); settings: in vivo

NNC(=O)CP(=O)(c1ccccc1)c1ccccc1 [Hydrazide of diphenylphosphinylacetic acid]
toxicity [1]: limited toxicity
LD50 ([1]; iv, injected intravenously, species not given): 293 mg/kg
MTD ([1]; mouse, mice, read-out: DMT (tolerance dose)): 200 mg/kg
peripheral adrenolytic effect [2]: no peripheral adrenolytic effect
local irritant effect [3]: no local irritant effect
cumulative effect [4]: no cumulative effect
prevention of death of mice [5]: 60%
prevention of convulsions [6]: does not prevent convulsions
synergism with nibuphin [7]: synergism
lowest dose potentiating barbamil ([8]; barbamil): 1/5
duration of hexenal sleep ([8]; hexenal given 2 and 22 hours after the preparation): induces sleep of equal duration
potentiation of narcotics and soporifics ([8]; in vivo): potentiates hexenal, barbamil, urethane and chloral hydrate; also recorded: exhibits the properties of a true Brodie potentiator
suppression of monoaminooxidaze activity [9]: does not suppress the monoaminooxidaze activity
effect on analgetic effect of analginum ([10]; 1/2 DMT): intensified the analgetic effect of analginum
effect on analgetic effect of morphine ([10]; 1/4 DMT): intensified the analgetic effect of morphine
lowest dose with analgetic effect ([10]; mice): 1/4
duration of analgetic effect ([10]; mice, 1/2 DMT): three hours
duration of analgesia ([10]; mice, DMT): more than five hours
excretion of adrenalin and 17-oxycorticosteroids with urine [11]: pronounced normalization
extraction of norepinephrine [11]: tendenecy towards a normalized extraction
functions of sympathoadrenal and hypothalamohypophysioadrenal systems ([11]; course of treatment): normalized the functions
tranquilizer strength ([12]; human, in vivo): relatively weak tranquilizer
night sleep effect ([12]; neuroses): light night sleep compeller
onset of sleep ([12]; neuroses): accelerates the onset of sleep
efficacy versus known drugs ([12]; neurotic and psychic disorders with vegetovascular disturbances and epileptic fits without convulsions): superior in this respect to the known drugs
side effects or complications ([12]; patients): no side effects or complications
tolerance ([12]; patients): good tolerance
relaxation effect ([12]; patients, versus benzodiazepin derivatives): absence to a marked relaxation effect
electrocardiography ([13]; 8 to 12 weeks): nor are there any changes that could be detected by electrocardiography
morphological and biochemical composition of the blood ([13]; 8 to 12 weeks): does not change the morphological and biochemical composition of the blood
habit formation ([13]; clinical): not habit-forming
toxicity ([13]; clinical): low toxicity
contraindication ([13]; human, in vivo): gastric ulcer with a tendency to frequency exacerbations
impediment to drivers ([13]; human, in vivo): no impediment to drivers
side effects or complications ([13]; prolonged administration): no side effects or complications
epileptic seizures [14]: prevents or reduces the frequency of epileptic seizures
serotonin content in brain tissue [15]: decreases the serotonin content
changes in blood and internal organs [16]: no changes in the blood and internal organs
vegetovascular crises ([17]; 8 of 11 patients): reduced number or even complete eliminationn of vegetovascular crises
patients with significant improvement ([17]; of 11 patients, end of the first week): 8 patients
cases with marked improvement (crises ceased, working capacity restored) [18]: 5 cases
cases with number and intensity of fits reduced and general improvement [18]: 12 cases
changes in blood and internal organs [19]: no changes in the blood and internal organs
advent of phenamine stereotypy ([20]; great doses): prevents the advent
duration of phenamine stereotypy ([20]; rats, 10 mg/kg to 400 mg/kg): statistically reliable reduction
patients with considerable improvement [21]: 20
effect on body temperature ([22]; 30 mg/kg (1/7 DMT)): no effect
effect on body temperature ([22]; 60 mg/kg (printed 166 DMT)): no effect
decrease of body temperature (hypothermal effect) ([22]; 1.5 hours): 4.3 °C
decrease of body temperature (hypothermal effect) ([22]; 3 hours): 3.4 °C
dysphorias and patients' behavior ([23]; 18 cases): dysphorias were better endured, and the patients' behavior became more controlled
electroencephalography ([23]; 18 cases): reduction in the paroxysmal activity and normalization of recordings
cases in which attacks ceased completely or frequency reduced by more than half ([23]; of 18 cases): 14 cases
nicotine-induced convulsions [24]: relieve nicotine-induced convulsions in mice
increase of survival rate ([24]; nicotine-induced convulsions): 50%
sedative effect ([25]; animals): pronounced sedative effect
lowest dose causing depression ([25]; mice and rats): 1/3
depression (without "on-side" position) ([25]; mice and rats, tolerance doses, beginning with 1/3 DMT): causes depression in mice and rats
solubility in alcohol ([26]; alcohol): soluble
solubility in benzene ([26]; benzene): insoluble
solubility in chloroform ([26]; chloroform): soluble
solubility in ether ([26]; ether): insoluble
sensitivity to convulsant effects of corasole and caffeine [27]: increases the sensitivity of mice
effect on toxicity of apomorphine ([28]; mice): does not intensify the toxicity of apomorphine in mice
effect on duration of apomorphine stereotypy ([28]; mouse, in vivo): nor does it affect the duration of apomorphine stereotypy
effect on arecoline tremor ([29]; mice): does not mitigate arecoline tremor in mice
effect on duration of arecoline tremor ([29]; mice): nor does it affect its duration
M-cholinolytic effect ([29]; mouse, in vivo): no M-cholinolytic effect
antagonism of serotonin on separated intestine [30]: prevents the action of serotonin
effect on animals' behavior [31]: in no way affected the animals's behavior
effect on orientating reaction [32]: affects the orientating reaction in mice
anticholinesterase properties [33]: do not possess anticholinesterase properties
shelf life [34]: longer than two years
chemical stability ([34]; powder and solution): chemically stable both in the form of powder and solution
effect on hypothermal effect of aminazine (chlorpromazine) [35]: intensifies the hypothermal effect
